Measurements published in US20250019385A1, “SPIROCYCLIC ANNULATED 2-AMINO-3-CYANO THIOPHENES AND DERIVATIVES FOR THE TREATMENT OF CANCER” (Boehringer Ingelheim International GmbH, priority 2023, published 2025).

Columns and labels:
Assay type in all cases: in vitro ADME
[1] = Caco-2 assay (permeability and efflux ratio); settings: human; for Papp A→B at 90 min, 10 μM: Caco-2 apical to basolateral permeability, pH 7.4, read-out: Caco PappAB; for efflux ratio at 90 min, 10 μM: pH 7.4, Caco-2 efflux ratio PappBA/PappAB, read-out: Caco ER
Method: (§1) The assay provides information on the potential of a compound to pass the cell membrane, on the extent of oral absorption as well as on whether the compound is actively transported by uptake and/or efflux transporters. Permeability measurements across polarized, confluent Caco-2 cell monolayers grown on permeable filter supports (Corning, catalog #3391) are used. 10 μM test compound solution in assay buffer (128.13 mM NaCl, 5.36 mM KCl, 1 mM MgSO4, 1.8 mM CaCl2), 4.17 mM NaHCO3, 1.19 mM Na2HPO4, 0.41 mM NaH2PO4, 15 mM 2-[4-(2-hydroxyethyl)piperazin-1-yl]ethanesulfonic acid (HEPES), 20 mM glucose, pH 7.4) was added to the donor compartment of the cell chamber containing a monolayer of Caco-2 cells in between the donor and the receiver compartment. The receiver and donor compartments contain 0.25% bovine serum albumine (BSA) in assay buffer. Passive diffusion and/or active transport of compounds across the monolayer is measured in both apical to basolateral (a-b) and basolateral to apical (b-a) direction. a-b permeability (PappAB) represents drug absorption from the intestine into the blood and b-a permeability (PappBA) drug secretion from the blood back into the intestine via both passive permeability as well as active transport mechanisms mediated by efflux and uptake transporters that are expressed on the Caco-2 cells. After a pre-incubation of 25-30 min at 37° C., at predefined time points (0, 30, 60 and 90 min), samples were taken from the receiver and donor compartment, respectively. Concentrations of test compounds in samples were measured by HPLC/MS/MS, samples from the donor compartment were diluted 1:50 (v:v) with assay buffer, samples from receiver compartment were measured without dilution.
(§2) Apparent permeabilities in a-b (PappAB) and b-a (PappBA) directions are calculated according to the formula:
(§3) [formula] • Vrec [mL]: buffer volume in receiver compartment • Cdon [μmol/mL]: concentration of test compound in donor compartment at t=0 • ΔCrec: difference between concentrations of test compound in receiver compartment at start and end of incubation time • Δt: Incubation time • Vrec·ΔCrec/Δt [μmol/min]: Amount of compound transferred to receiver compartment per time • A [cm^2]: filter surface
(§4) Caco-2 efflux ratios (ER) are calculated as the ratio of PappBA/PappAB.

CYP3A4 = CYP3A4 (Homo sapiens (Human), UniProt P08684); experiment: Mechanism based inhibition of CYP3A4 assay (MBI 3A4); settings: human liver microsomes, 25 uM compound; hydroxy-midazolam formation after 30 min preincubation relative to 0 min
Method: The time dependent inhibition towards CYP3A4 is assayed in human liver microsomes (0.02 mg/mL) with midazolam (15 μM) as a substrate. The test compounds and water control (wells w/o test compound) are preincubated in presence of NADPH (1 mM) with human liver microsomes (0.2 mg/mL) at a concentration of 25 uM for 0 min and 30 min. After preincubation, the incubate is diluted 1:10 and the substrate midazolam is added for the main incubation (15 min). The main incubation is quenched with acetonitrile and the formation of hydroxy-midazolam is quantified via LC/MS-MS. The formation of hydroxy-midazolam from the 30 min preincubation relative to the formation from the 0 min preincubation is used as a readout. Values of less than 100% mean that the substrate midazolam is metabolized to a lower extent upon 30 min preincubation compared to 0 min preincubation. In general low effects upon 30 min preincubation are desired (corresponding to values close to 100%/not different to the values determined with water control).

Caco-2 cell monolayers = experiment: Caco-2 assay (permeability and efflux ratio); settings: 10 μM
Method: as §1, §2, §3, §4

Sequence of CYP3A4 (P08684 whole entry): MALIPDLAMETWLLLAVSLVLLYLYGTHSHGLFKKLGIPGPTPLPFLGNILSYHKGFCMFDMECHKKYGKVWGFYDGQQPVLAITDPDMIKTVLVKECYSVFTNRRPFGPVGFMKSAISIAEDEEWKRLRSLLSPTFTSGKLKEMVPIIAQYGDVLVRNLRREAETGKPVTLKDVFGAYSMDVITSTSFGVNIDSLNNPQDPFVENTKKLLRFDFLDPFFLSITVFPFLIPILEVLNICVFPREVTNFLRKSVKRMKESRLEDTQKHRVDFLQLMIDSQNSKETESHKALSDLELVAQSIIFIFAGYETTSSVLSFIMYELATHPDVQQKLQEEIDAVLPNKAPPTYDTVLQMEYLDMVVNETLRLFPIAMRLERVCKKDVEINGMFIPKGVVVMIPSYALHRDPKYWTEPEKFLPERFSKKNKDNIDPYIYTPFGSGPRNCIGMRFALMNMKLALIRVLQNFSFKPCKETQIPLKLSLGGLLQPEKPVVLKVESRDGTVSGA

| Structure (SMILES) | Papp A→B at 90 min, 10 μM [1] [×10⁻⁶ cm/s] | efflux ratio at 90 min, 10 μM [1] | MBI 3A4 (CYP3A4) [%] | Caco PappAB (Caco-2 cell monolayers; Caco-2 apical to basolateral permeability, pH 7.4) [cm/s] | Caco ER (Caco-2 cell monolayers; Caco-2 efflux ratio PappBA/PappAB) |
| --- | --- | --- | --- | --- | --- |
| COCCn1c(=O)n([C@@H]2CCOC2)c2nc(-c3onc4c3CCC[C@@]43CCCc4sc(N)c(C#N)c43)nc(O[C@@H](C)[C@@H]3CCCN3C)c21 [I-1] | 18 | 3.1 | – | – | – |
| CO[C@@H]1C[C@@H]([C@H](C)Oc2nc(-c3onc4c3CCC[C@@]43CCCc4sc(N)c(C#N)c43)nc3c2n(C)c(=O)n3[C@@H]2CCOC2)N(C)C1 [I-3] | 29 | 1.9 | – | – | – |
| C[C@H](Oc1nc(-c2onc3c2CCC[C@@]32CCCc3sc(N)c(C#N)c32)nc2c1[nH]c(=O)n2[C@@H]1CCOC1)[C@@H]1CCCN1C [I-8] | 0.8 | 46.3 | 61 | – | – |
| C[C@H](Oc1nc(-c2onc3c2CCC[C@@]32CCCc3sc(N)c(C#N)c32)nc2c1n(C)c(=O)n2[C@H]1CCOC1)[C@@H]1CCCN1C [I-9] | 20 | 2.7 | 83 | – | – |
| C[C@H](Oc1nc(-c2onc3c2CCC[C@@]32CCCc3sc(N)c(C#N)c32)nc2c1n(C)c(=O)n2[C@@H]1CCCOC1)[C@@H]1CCCN1C [I-12] | 25.5 | 1.7 | 75 | – | – |
| C[C@H](Oc1nc(-c2onc3c2CCC[C@@]32CCCc3sc(N)c(C#N)c32)nc2c1n(C)c(=O)n2[C@@H]1CCOC1)[C@@H]1CCCN1C [I-20] | 11.9 | 6.2 | 92 | – | – |
| CCn1c(=O)n([C@@H]2CCOC2)c2nc(-c3onc4c3CCC[C@@]43CCCc4sc(N)c(C#N)c43)nc(O[C@@H](C)[C@@H]3CCCN3C)c21 [I-21] | 19 | 3.8 | – | – | – |
| C[C@H](Oc1nc(-c2onc3c2CCC[C@@]32CCCc3sc(N)c(C#N)c32)nc2c1n(C)c(=O)n2[C@@H]1CCOC1)C12CCCN1CCC2 [I-25] | 2.9 | 18.6 | 60 | – | – |
| C[C@H](Oc1nc(-c2onc3c2CCC[C@@]32CCCc3sc(N)c(C#N)c32)nc2c1n(C)c(=O)n2[C@@H]1CCOC1)[C@@H]1CC[C@H](C)N1C [I-26] | 43 | 1 | 83 | – | – |
| C[C@H](Oc1nc(-c2onc3c2CCC[C@@]32CCCc3sc(N)c(C#N)c32)nc2c1n(C)c(=O)n2[C@@]12COC[C@@H]1C2)[C@@H]1CCCN1C [I-29] | 19 | 2.5 | 79 | – | – |
| CCn1c(=O)n([C@@H]2CCCOC2)c2nc(-c3onc4c3CCC[C@@]43CCCc4sc(N)c(C#N)c43)nc(O[C@@H](C)[C@@H]3CCCN3C)c21 [I-30] | – | 0.7 | – | – | – |
| C[C@@H]1COC[C@H](n2c(=O)n(C)c3c(O[C@@H](C)[C@@H]4CCCN4C)nc(-c4onc5c4CCC[C@@]54CCCc5sc(N)c(C#N)c54)nc32)C1 [I-44] | 14 | 2.5 | – | – | – |
| C[C@H](Oc1nc(-c2onc3c2CCC[C@@]32CCCc3sc(N)c(C#N)c32)nc2c1n(C)c(=O)n2[C@@]12COC[C@@H]1C2)[C@@H]1CC[C@H](C)N1C [I-45] | 43 | 0.6 | – | – | – |
| CO[C@@H]1C[C@@H]([C@H](C)Oc2nc(-c3onc4c3CCC[C@@]43CCCc4sc(N)c(C#N)c43)nc3c2n(C)c(=O)n3[C@@]23COC[C@@H]2C3)N(C)C1 [I-46] | 21 | 1.8 | – | – | – |
| CO[C@H]1CCN(C)[C@@H]1[C@H](C)Oc1nc(-c2onc3c2CCC[C@@]32CCCc3sc(N)c(C#N)c32)nc2c1n(C)c(=O)n2[C@H]1COC[C@@H](C)C1 [I-51] | 36 | 0.5 | – | – | – |
| CO[C@@H]1C[C@@H]([C@H](C)Oc2nc(-c3onc4c3CCC[C@@]43CCCc4sc(N)c(C#N)c43)nc3c2n(C)c(=O)n3[C@H]2COC[C@@H](C)C2)N(C)C1 [I-52] | 34 | 0.6 | – | – | – |

| Structure (SMILES) | Papp A→B at 90 min, 10 μM [1] [×10⁻⁶ cm/s] | efflux ratio at 90 min, 10 μM [1] | MBI 3A4 (CYP3A4) [%] | Caco PappAB (Caco-2 cell monolayers; Caco-2 apical to basolateral permeability, pH 7.4) [cm/s] | Caco ER (Caco-2 cell monolayers; Caco-2 efflux ratio PappBA/PappAB) |
| --- | --- | --- | --- | --- | --- |
| C[C@H](Oc1nc(-c2onc3c2CCC[C@@]32CCCc3sc(N)c(C#N)c32)nc2c1COC[C@]21CCOC1)[C@@H]1CCCN1C [I-54] | – | – | 83 | – | – |
| C[C@H](Oc1nc(-c2onc3c2CCC[C@@]32CCCc3sc(N)c(C#N)c32)nc2c1CN(C1COC1)C[C@]21CCOC1)[C@@H]1CC[C@H](C)N1C [I-55] | 24 | 2.3 | – | – | – |
| C[C@H](Oc1nc(-c2onc3c2CCC[C@@]32CCCc3sc(N)c(C#N)c32)nc2c1CN(C1COC1)C[C@]21CCOC1)[C@@H]1CCCN1C [I-56] | 8.4 | 7.1 | – | – | – |
| CO[C@H]1CCN(C)[C@@H]1[C@H](C)Oc1nc(-c2onc3c2CCC[C@@]32CCCc3sc(N)c(C#N)c32)nc2c1CN(C1COC1)C[C@]21CCOC1 [I-57] | 35 | 1.3 | – | – | – |
| C[C@H](Oc1nc(-c2noc3c2CCC[C@@]32CCCc3sc(N)c(C#N)c32)nc2c1n(C)c(=O)n2[C@H]1CO[C@@H](C)C1)[C@@H]1CCCN1C [II-5] | 8.7 | 5.9 | – | – | – |
| CO[C@@H]1C[C@@H]([C@H](C)Oc2nc(-c3noc4c3CCC[C@@]43CCCc4sc(N)c(C#N)c43)nc3c2n(C)c(=O)n3[C@@]23COC[C@@H]2C3)N(C)C1 [II-6] | 13 | 4.3 | – | – | – |
| C[C@H](Oc1nc(-c2noc3c2CCC[C@@]32CCCc3sc(N)c(C#N)c32)nc2c1COC[C@]21CCOC1)[C@@H]1CCCN1C [II-8] | 23 | 1.6 | 85 | – | – |
| C[C@H](Oc1nc(-c2noc3c2CCC[C@@]32CCCc3sc(N)c(C#N)c32)nc2c1CCO[C@]21CCOC1)[C@@H]1CCCN1C [II-9b] | 25 | 1.8 | 101 | – | – |
| CO[C@@H]1C[C@@H]([C@H](C)Oc2nc(-c3noc4c3CCC[C@@]43CCCc4sc(N)c(C#N)c43)nc3c2COC[C@]32CCOC2)N(C)C1 [II-11] | 27 | 0.9 | – | – | – |
| C[C@H](Oc1nc(-c2noc3c2CCC[C@@]32CCCc3sc(N)c(C#N)c32)nc2c1CN(C1COC1)C[C@]21CCOC1)[C@@H]1CCCN1C [II-12] | 2.9 | 21.6 | – | – | – |
| CO[C@H]1CCN(C)[C@@H]1[C@H](C)Oc1nc(-c2noc3c2CCC[C@@]32CCCc3sc(N)c(C#N)c32)nc2c1CN(C1COC1)C[C@]21CCOC1 [II-13] | 18 | 2.9 | – | – | – |
| CO[C@@H]1C[C@@H]([C@H](C)Oc2nc(-c3noc4c3CCC[C@@]43CCCc4sc(N)c(C#N)c43)nc3c2CN(C2COC2)C[C@]32CCOC2)N(C)C1 [II-14] | 3.2 | 15.3 | – | – | – |
| C[C@H](Oc1nc(-c2noc3c2CCC[C@@]32SCCc3sc(N)c(C#N)c32)nc2c1COC[C@]21CCOC1)[C@@H]1CCCN1C [II-16] | 12 | 3.8 | – | – | – |
| C[C@H](Oc1nc(-c2noc3c2CCC[C@@]32CCCc3sc(N)c(C#N)c32)nc2c1CN(C1COC1)C[C@]21CCOC1)[C@@H]1CC[C@H](C)N1C [II-17] | 16 | 3.4 | – | – | – |
| C[C@H](Oc1nc(-c2noc3c2CCC[C@@]32CCCc3sc(N)c(C#N)c32)nc2c1CC[C@]21CNCCO1)[C@@H]1C[C@@H](F)CN1C [II-20] | – | – | 95 | 3e-07 | 303.8 |
